Assay results taken from patent US10759754B2, “Aminobenzoic acid derivatives for use as anti-inflammatory agents, anti-metastatic agents and/or anticancer agents” (3R VALO, S.E.C., priority 2016, dated 2020).
“Also recorded” adds a separate entry of the source.

Assays:
MB49-I cells = assay: LPS/IFNγ-induced NO production in MB49-I cells; format: cell-based, murine
Procedure: Evaluation of NO and Urea production by chemical methods. The MB49-I cells and the J774A.1 cells (25×10^3 cells/well) were grown and pretreated, as indicated, with various anti-inflammatory derivatives, precursors and mono-functional derivatives for a period of 3 h. […] NO production was measured using the Griess reagent method as previously described.^27 This method involves the detection of nitrite ions (NO2^−) formed by the spontaneous oxidation of NO under physiological conditions. According the manufacture procedure (Life Technologies; # G-7921), equal volumes of sulfanilic acid and N-(1-naphthyl)ethylenediamine are mixed together to form the Griess reagent. In the presence of NO2^−, sulfanilic acid is converted to a diazonium salt, which in turn is coupled to N-(1-naphthyl)ethylenediamine to produce a pink coloration that is measured with a spectrophotometer (Biotek, synergy HT) at 548 nm. In the same manner, urea synthesis through arginase-1 activity was measured using commercially available kit.

MB49-I tumors = assay: Ectopic UBC model, MB49-I tumors implanted in the flank of male mice; format: in vivo; details: i.p. 150 μM during 18 days, tumors recovered day 20
Procedure: Ectopic UBC model. Male C57BL/6J mice (6-8 weeks old), each weighing 15-18 g, were used for the experiments (supplied by Charles River). The mice were housed with free access to food and water on a 12:12 h light:dark cycle with the room temperature maintained at 21° C. MB49 cells, MB49-I cells, and iNOS-deficient MB49-I cells ([…] in 100 μL PBS) were injected subcutaneously (s.c.) into the right flank of the mice. Growth rates of the s.c. tumors were monitored. The size of tumors was determined every 3 days for 24-28 days using a digital caliper and by measuring luciferin luminescence at days 15 and 25 using the IVIS imaging system. A blinded observer measured tumor length and width. The volume of the tumor was calculated from the formula: Length×width2×0.52, where length and width were tumor diameters measured with calipers in mutually perpendicular directions. At a tumor size of approximately 10 mm^3 the mice were divided into different groups. A control group received PBS as treatment. As indicated, other groups were treated at different doses (90, 150 or 300 μM) with an intraperitoneal (i.p.) injection of compounds 4 or 8 every 3-4 days for 18-20 days.^24,27

STAT1 [1] = assay: Western blot of phosphorylated STAT1 in IFNγ-activated RAW 264.7 cells; format: cell-based, murine; details: 90 min pretreatment at 20 and 37.5 μM, 5 ng/mL IFNγ 15 min
Procedure: (§1) Cell signaling studies: THP1-derived human macrophages (750×10^3 cells/mL) and MB49-I cells (500×10^3 cells/mL) were pretreated for 30 min with vehicle (DMSO), compounds 4 and 5, at 10, 25 or 50 μM; and then washed and recovered immediately (t=0 min) or after 30 min of activation with 50 U/mL IFNγ, 25 ng/mL IL6, or 10 ng/mL TNFα. Cell lysates were prepared and analyzed by immunoblotting as described.^21-23,25 Briefly, protein samples were resolved by SDS-PAGE under reducing conditions and transferred onto a PVDF membrane. Blots were first probed with rabbit polyclonal antibodies against phospho-STAT1 (pSTAT1), pSTAT3, or p-IκB (all at 1:2000) overnight at 4° C. Blots were then incubated with HRP-conjugated goat anti-rabbit IgG Ab (1:3000) for 1 h at room temperature. The same blots were stripped and then probed with anti-STAT1 or anti-STAT3 Abs (both at 1:1000). In both cases, probed molecules were visualized using an enhancement chemiluminescence detection kit (Thermo Fisher Scientific).

[2] = tested on: IκB / NFκB signaling pathway; assay: Western blot of phosphorylated IκB in LPS-activated RAW 264.7 cells; format: cell-based, murine; details: 90 min pretreatment at 20 and 37.5 μM, 100 ng/mL LPS 15 min
[3] = tested on: human macrophages THP-1 cells; details: 90 min pretreatment, counted after 24 h
murine UBC MB49-I cells = details: 90 min pretreatment, counted after 24 h
[4] = tested on: murine macrophages RAW 264.7 cells; details: 90 min pretreatment, counted after 24 h
[5] = tested on: macrophage-like J774A.1 cells; assay: IFNγ/TNFα-induced NO production (Griess) in J774A.1 cells; format: cell-based, murine; details: pretreatment then IFNγ and TNFα, hydrochloride
Procedure: (§2) Evaluation of NO and Urea production by chemical methods. The MB49-I cells and the J774A.1 cells (25×10^3 cells/well) were grown and pretreated, as indicated, with various anti-inflammatory derivatives, precursors and mono-functional derivatives for a period of 3 h. Afterwards the cells were washed twice with 10% FBS RPMI-1640 and then activated to produce NO for a period of 24 h with cytokines INFγ and TNFα. NO production was measured using the Griess reagent method as previously described.^27 This method involves the detection of nitrite ions (NO2^−) formed by the spontaneous oxidation of NO under physiological conditions. According the manufacture procedure (Life Technologies; # G-7921), equal volumes of sulfanilic acid and N-(1-naphthyl)ethylenediamine are mixed together to form the Griess reagent. In the presence of NO2^−, sulfanilic acid is converted to a diazonium salt, which in turn is coupled to N-(1-naphthyl)ethylenediamine to produce a pink coloration that is measured with a spectrophotometer (Biotek, synergy HT) at 548 nm. In the same manner, urea synthesis through arginase-1 activity was measured using commercially available kit.

CD40 = assay: Flow cytometry of CD40 surface antigen in IFNγ-activated human macrophages; format: cell-based; details: compound 4 at 10 μM, compound 5 at 25 μM, hydrochloride
Procedure: (§3) Surface antigen expression analysis. To study membrane receptor expression, THP1-derived human macrophages (750×10^4 cells/mL) were pretreated for 3 h with DMSO or compounds 4 and 5, and then left untreated (control) or treated for 48 h with 50 U/mL IFNγ. The expression level of MHC-II and CD40 was evaluated by flow cytometry as described.^21-23

UBC cell line MB49-I = assay: IFNγ/TNFα-induced NO production (Griess) in MB49-I cells; format: cell-based, murine; details: 10 and 50 μM
Procedure: as §2

STAT3 = assay: Western blot of phosphorylated STAT3 in IL6-activated human macrophages; format: cell-based; details: human macrophages pretreated 30 min at 10 and 50 μM; 30 min activation with 25 ng/mL IL6; hydrochloride
Procedure: as §1

STAT1 [6] = assay: Western blot of phosphorylated STAT1 in IFNγ-activated human macrophages; format: cell-based; details: human macrophages pretreated 30 min at 10 and 50 μM; 30 min activation with 50 U/mL IFNγ; hydrochloride
Procedure: as §1

MHC-II = assay: Flow cytometry of MHC-II surface antigen in IFNγ-activated human macrophages; format: cell-based; details: compound 4 at 10 μM, compound 5 at 25 μM, hydrochloride
Procedure: as §3

With `CC(C)(C)OC(=O)NNC(=O)c1ccc(N2C(=O)CCC2=O)cc1` [Compound 12, N′-[4-(2,5-dioxo-pyrrolidin-1-yl)-benzoyl]-hydrazine carboxylic acid tert-butyl ester] the “LPS/IFNγ-induced NO synthesis” value (MB49-I cells; compound 4 at 30 μM, compound 12 at 10, 20, 37.5 and 50 μM) was “lost its anti-inflammatory activity; also recorded: does not affect”.
`CC(=O)N(NC(=O)c1ccc(N2C(=O)C=CC2=O)cc1)C(C)=O` [Compound 8, 4-(2,5-dioxo-2,5-dihydro-pyrrol-1-yl)-benzoic acid N′-diacetyl-hydrazide] was tested, and the “IFNγ/LPS-induced NO production” value (MB49-I cells; 20 and 37.5 μM) was “more efficient than compound 4”, the “tumor volume of muscle-invasive MB49-I tumors” value (MB49-I tumors) was “anti-proliferative activity; also recorded: more efficient than compound 4” and the “IFNγ-activated STAT1 signaling pathway (ratio p-STAT1/STAT1)” value (STAT1 [1]) was “more efficient than other compounds”. For the same compound, the “LPS-activated NFκB signaling pathway (ratio p-IkB/IkB)” value [2] was “efficient to inhibit”, the “cytotoxic effect (cell viability)” value [3] was “lower than that of compound 4” and the “cytotoxic effect (cell viability)” value (murine UBC MB49-I cells) was “lower than that of compound 4”. The “cytotoxic effect (cell viability)” value [4] was “lower than that of compound 4”.
For `CC(=O)N(C(=O)OC(C)(C)C)N(C(C)=O)C(=O)c1ccc(N2C(=O)C=CC2=O)cc1` [Compound 11, N,N′-diacetyl-N′-[4-(2,5-dioxo-2,5-dihydro-pyrrol-1-yl)-benzoyl]-hydrazinecarboxylic acid tert-butyl ester], the “LPS-activated NFκB signaling pathway (ratio p-IkB/IkB)” value [2] was “efficient to inhibit”.
In the case of `Cl.NNC(=O)c1ccc(N2C(=O)C=CC2=O)cc1` [Compound 5, 4-(2,5-dioxo-2,5-dihydro-pyrrol-1-yl)-benzoic acid hydrazide hydrochloride], the “combined IFNγ/TNFα-induced NO synthesis” value [5] is reported as “effective in reducing; also recorded: efficiently inhibited”, the “IFNγ-induced CD40 expression” value (CD40) is reported as “effective in reducing; also recorded: efficiently inhibited” and the “combined IFNγ/TNFα-induced NO synthesis” value (UBC cell line MB49-I) is reported as “efficiently inhibited”. For the same compound, the “IL6-induced STAT3 activation (ratio of phosphorylated/no phosphorylated proteins)” value (STAT3) was “decreased; also recorded: efficiently inhibited”, the “IFNγ-induced STAT1 activation (ratio of phosphorylated/no phosphorylated proteins)” value (STAT1 [6]) was “decreased; also recorded: efficiently inhibited” and the “IFNγ-induced MHC-II expression” value (MHC-II) was “effective in reducing; also recorded: efficiently inhibited”.
For `CC(=O)N(NC(=O)OC(C)(C)C)C(=O)c1ccc(N2C(=O)C=CC2=O)cc1` [Compound 10, N-acetyl-N-[4-(2,5-dioxo-2,5-dihydro-pyrrol-1-yl)-benzoyl]-hydrazinecarboxylic acid tert-butyl ester], the “LPS-activated NFκB signaling pathway (ratio p-IkB/IkB)” value [2] was “efficient to inhibit”.
